In general, EC50 refers to the concentration at which the effect is half-maximal. Lower therefore signals greater potency.

One compound from patent US12331051B2 (priority 2021, dated 2025) can be followed below.

One data set addresses T1, hERG channel (Homo sapiens, UniProt Q12809).
T1 construct: expressed in transfected cells; host or cells: CHO-K1
Kind of data set: Cell-based hERG antagonist assay, CHO-K1 cells, tail current. On the procedure: The human […] (hERG) channel, is a potassium channel whose inhibition is related to cardiac arrhythmias (Abbott et al., Cell, 1999, V97(2); p175-187). The effect of the “E559 polymorph” on the hERG channel was performed in a cell-based hERG antagonist assay. In brief, CHO-K1 cells were stably transfected with human hERG cDNA and allowed to achieve whole cell configuration in culture. Cells were held at −80 mV and a 500 ms pulse to −40 mV is delivered to measure the leaking current, which is subtracted from the tail current on-line. Then the cell is depolarized to +40 mV for 500 ms and then to −80 mV over a 100 ms ramp to elicit the hERG tail current. This paradigm is delivered once every 8 s to monitor the current amplitude. The assay is conducted at room temperature. The “E559 polymorph” is then applied to cells from low to high concentrations (0.0003, 0.003, 0.01, 0.03, 0.1, 0.3, 1, 10, 30, and 100 μM) sequentially for 5 minutes. Astermizole is used at multiple concentrations as a reference compound to calculate the percent inhibition of hERG channel by the “polymorph E559”.
(In general: Block of hERG is tested as a sign of cardiac risk.)

Data set [1] can be described thus: Pharmacokinetic study, single IP injection, plasma and brain by LC-MS/MS. The settings on record: IP 0.75, 2.25 or 6.75 mg/kg, male and female mice. In kind it is in vivo, CD-1 mice. On the procedure:
A pharmacokinetic (PK) study of the “E559 polymorph” was conducted following a single intraperitoneal (IP) injection in CD-1 mice. PK analysis of the “E559 polymorph” was performed in plasma samples and in brain tissue taken at different time points post injection. Three groups of male mice and three groups of female mice (n=24 per group) were administered “E559” at different doses (0.75, 2.25, or 6.75 mg/kg) by IP injection at time zero. In each dose group, three mice/sex were sacrificed to collect plasma and brain samples at pre-dose, and 0.17, 0.5, 1, 2, 4, 8, and 24 hours post-dose. Levels of the “E559 polymorph” in plasma and brain tissue were assessed by LC-MS/MS method. Briefly, to extract the plasma samples, 200 μL of acetonitrile containing 10 ng/mL LSD-d3 was added to 50 μL of plasma. The mixture was vortexed vigorously, centrifuged (13,000 rpm) for 2 min at 4° C., and then 50 μL of supernatant was combined with 200 μL methanol/water (1:1, v/v) for LC-MS/MS analysis. Brain tissues were weighed and homogenized for ˜1 min in cold acetonitrile at a ratio of 1:1.5 (w/v) brain tissue to extraction solvent. The brain samples were then centrifuged at 13,000 rpm for 2 min at 4° C. and the supernatant was collected for LC-MS/MS analysis. In LC-MS/MS method, isocratic elution was performed on an ACE Excel 5 SuperC18™ column at 25° C., with a run time of 6.5 min. The mobile phase consisted of methanol-water (8:2, v/v) plus 0.1% NH4OH at a flow rate of 0.8 mL/min. The injection volume was 10 μL/sample. […]
The “E559 polymorph” was quantified by selected reaction monitoring of the following mass transitions (2-Br-LSD m/z 403.3→302, LSD-d3 internal standard m/z 327.2→226.1). The quantification of the “E559 polymorph” concentration in samples was achieved by using appropriate calibration standards. […] The pharmacokinetic parameters were determined by the non-compartmental analysis using the validated Phoenix®WinNonlin® version 8.2 software (Certara Inc).

A further data set deals with stress naive mice. Kind of data set: Open field test (OFT), stress naive mice. In kind it is in vivo, mouse. On the procedure: In brief, stress naive mice were treated (IP injection) with either saline (control) or single dose of the “E559 polymorph” at 0.3, 1, or 3 mg/kg dose levels and were evaluated 24 hours (OFT) and […] after treatment. The OFT was performed described in Example 13. The FST was performed as previously described in (Aguilar-Valles et al., Nature, 2021, 590, p315-319). Briefly FST was performed 24-hour post treatment by placing the mice (one by one) in a 4-liter wide-mouthed flask of 35° C. water. Mice activities were recorded for 6 minutes and assessed for total time the animal remains immobile, a sign of depressive-like behavior. FIG. 25A depicts the study design where female/male mice (n=10/group/sex) were treated by IP injection with the “E559 polymorph” or vehicle (saline) followed by open field and force swim test 24 hours post treatment. FIGS. 25B and 25E represent the total distance travelled in the open field test 24 hours after vehicle or the “E559 polymorph” in female and male mice, respectively. FIGS. 25C and 25F represent the time in the center of the open field by female and male mice, respectively. FIGS. 25D and 25G represent the immobility time during the last 4 minutes of the forced swim test in female and male mice, respectively. Horizontal lines represent the mean±standard error of the mean (S.E.M.) and asterisks indicate statistical significances.

T1 sequence (Q12809 whole entry): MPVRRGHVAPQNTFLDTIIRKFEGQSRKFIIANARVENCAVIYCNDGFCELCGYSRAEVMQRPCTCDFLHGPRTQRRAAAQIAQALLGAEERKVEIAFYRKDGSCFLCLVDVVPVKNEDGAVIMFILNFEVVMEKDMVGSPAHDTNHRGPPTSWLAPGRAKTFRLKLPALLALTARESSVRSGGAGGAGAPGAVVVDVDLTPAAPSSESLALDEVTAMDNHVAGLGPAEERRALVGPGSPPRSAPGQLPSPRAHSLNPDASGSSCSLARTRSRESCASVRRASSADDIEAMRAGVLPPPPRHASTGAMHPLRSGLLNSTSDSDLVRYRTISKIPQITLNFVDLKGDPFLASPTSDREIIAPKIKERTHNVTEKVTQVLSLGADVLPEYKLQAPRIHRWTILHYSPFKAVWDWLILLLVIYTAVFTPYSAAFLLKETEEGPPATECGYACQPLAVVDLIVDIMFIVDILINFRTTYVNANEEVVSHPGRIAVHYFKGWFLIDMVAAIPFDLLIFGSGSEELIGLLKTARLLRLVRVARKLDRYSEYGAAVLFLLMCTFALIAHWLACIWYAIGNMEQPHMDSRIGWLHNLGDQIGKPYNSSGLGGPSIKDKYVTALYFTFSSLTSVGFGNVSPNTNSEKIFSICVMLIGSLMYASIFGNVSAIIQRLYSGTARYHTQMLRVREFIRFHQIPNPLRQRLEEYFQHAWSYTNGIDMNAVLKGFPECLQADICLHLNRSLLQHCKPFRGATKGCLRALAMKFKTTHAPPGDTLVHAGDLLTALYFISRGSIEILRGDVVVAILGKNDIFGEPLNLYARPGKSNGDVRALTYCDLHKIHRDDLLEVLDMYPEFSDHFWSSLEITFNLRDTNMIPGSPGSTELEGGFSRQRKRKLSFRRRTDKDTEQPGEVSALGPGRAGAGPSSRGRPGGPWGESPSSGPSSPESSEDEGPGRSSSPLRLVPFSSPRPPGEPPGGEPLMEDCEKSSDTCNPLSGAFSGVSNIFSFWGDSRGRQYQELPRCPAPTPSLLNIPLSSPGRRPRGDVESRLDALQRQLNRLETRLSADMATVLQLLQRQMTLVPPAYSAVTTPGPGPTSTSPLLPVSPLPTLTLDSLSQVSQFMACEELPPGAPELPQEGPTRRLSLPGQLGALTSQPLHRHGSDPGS

On hERG channel, `CCN(CC)C(=O)[C@@H]1C=C2c3cccc4[nH]c(Br)c(c34)C[C@H]2N(C)C1` [E559, (5R, 8R)-2-Bromo-9,10-didehydro-N,N-diethyl-6-methylergoline-8-carboxamide hemi-D-tartrate] yielded a concentration for a half-maximal effect (EC50) of 31.6 µM. Further, in data set [1], the “crossing of the blood-brain barrier (brain PK)” value is “can readily cross the blood-brain barrier”; the plasma levels entry was “increases in time-dependent and dose-dependent manners”; the “time to appearance in plasma post dose” value turned out to be 10 min. In addition, the “increase in exploration of the arena center (time in center), maximal effect” value with stress naive mice (female mice, IP 1 mg/kg, 24 hours after treatment) worked out at 88.18 ± 18.89 s. Besides, the “exploration of the arena center” value in the data set with stress naive mice (female mice, IP 1 and 3 mg/kg, 24 hours after treatment) is on record as “increased exploration of the arena center”. In addition, the “increased exploration of the stressogenic area of the open field” value in the data set on stress naive mice (male mice, IP 0.3, 1 or 3 mg/kg) is “not evident in male mice”.
